Experimental findings from ChEMBL document CHEMBL4351032, “Design, synthesis, and biological evaluation of 4-((6,7-dimethoxyquinoline-4-yl)oxy)aniline derivatives as FLT3 inhibitors for the treatment of acute myeloid leukemia” (Bioorg Med Chem Lett, 2019) are described below.

In experiment [1] the test system is HL-60. Kind of experiment: Antiproliferative activity against human HL60 cells harboring wild type FLT3 assessed as inhibition of cell growth incubated for 72 hrs by CCK-8 assay. In kind it is functional, cell-based. The settings on record: HL-60, 72 h. Background: Tetrazolium assays rely on reduction of a dye to a coloured formazan, in cell work by metabolically active cells.

The next experiment has as its system MV4-11. The experiment can be described thus: Antiproliferative activity against human MV4-11 cells harboring FLT3-ITD assessed as inhibition of cell growth incubated for 72 hrs by CCK-8 assay. In kind it is functional, cell-based. The following applies: MV4-11, 72 h.
The target in experiment [2] is T1, Receptor-type tyrosine-protein kinase FLT3 (Homo sapiens, UniProt P36888).
T1 sequence (P36888 whole entry): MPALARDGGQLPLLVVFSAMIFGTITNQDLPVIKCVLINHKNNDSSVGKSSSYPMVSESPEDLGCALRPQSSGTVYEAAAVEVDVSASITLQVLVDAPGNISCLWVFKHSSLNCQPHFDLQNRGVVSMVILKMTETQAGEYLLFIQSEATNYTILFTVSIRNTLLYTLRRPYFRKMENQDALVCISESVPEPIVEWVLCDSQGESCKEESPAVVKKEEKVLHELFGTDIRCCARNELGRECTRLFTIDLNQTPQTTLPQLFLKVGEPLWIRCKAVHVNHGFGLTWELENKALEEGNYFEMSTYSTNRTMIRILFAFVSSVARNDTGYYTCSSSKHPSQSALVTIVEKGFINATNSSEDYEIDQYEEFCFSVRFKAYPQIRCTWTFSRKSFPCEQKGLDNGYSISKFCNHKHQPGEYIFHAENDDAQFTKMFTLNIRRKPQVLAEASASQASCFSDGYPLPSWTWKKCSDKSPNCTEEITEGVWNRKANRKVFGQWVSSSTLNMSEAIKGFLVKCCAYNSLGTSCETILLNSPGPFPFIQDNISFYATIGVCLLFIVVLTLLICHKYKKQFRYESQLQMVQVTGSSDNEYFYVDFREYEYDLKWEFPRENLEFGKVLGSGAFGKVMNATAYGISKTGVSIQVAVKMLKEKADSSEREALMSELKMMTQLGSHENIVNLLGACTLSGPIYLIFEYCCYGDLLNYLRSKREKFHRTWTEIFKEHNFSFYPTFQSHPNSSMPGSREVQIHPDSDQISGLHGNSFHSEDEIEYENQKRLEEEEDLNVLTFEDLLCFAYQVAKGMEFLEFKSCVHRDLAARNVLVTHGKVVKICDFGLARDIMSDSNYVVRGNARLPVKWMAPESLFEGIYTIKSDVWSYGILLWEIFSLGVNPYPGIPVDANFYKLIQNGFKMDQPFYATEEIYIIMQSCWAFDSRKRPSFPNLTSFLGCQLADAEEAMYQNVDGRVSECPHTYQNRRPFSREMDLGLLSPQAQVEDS
Kind of experiment: Inhibition of FLT3 (unknown origin) using peptide as substrate preincubated with enzyme for 10 mins followed by substrate addition further incubated for 1 hr by mobility shift assay.

Experiment [3] has as its target T1, Receptor-type tyrosine-protein kinase FLT3. The experiment can be described thus: Inhibition of FLT3 (unknown origin).
The test system of experiment [4] is HL-60. Kind of experiment: Potency index, ratio of cabozantinib IC50 to compound IC50 for human HL60 cells incubated for 72 hrs by CCK-8 assay. In kind it is functional.

On to `COc1cc2nccc(Oc3ccc(NC(=O)C4(C(=O)Nc5ccc(F)cc5)CC4)cc3)c2cc1OC` [CABOZANTINIB], for which the IC50 with HL-60 [1] was found to be 22.5 µM; with MV4-11, 15.2 µM. On to `COc1cc2nccc(Oc3ccc(N/C(=N/c4ccc(OC(F)(F)F)cc4)C(F)(F)F)cc3)c2cc1OC`, for which, in the experiment on HL-60 [1], the IC50 stood at 32.7 µM. Turning to `COc1cc2nccc(Oc3ccc(NC(=O)N/N=C/c4cn(-c5ccccc5OC)nn4)cc3)c2cc1OC`, the IC50 was 14.2 µM in the experiment on HL-60 [1], 8.29 µM in the experiment with MV4-11 and 0.312 µM in experiment [2]. `COc1cc2nccc(Oc3ccc(N/C(=N/c4ccc(C)cc4)C(F)(F)F)cc3)c2cc1OC`: the concentration for half-maximal inhibition (IC50) in the experiment with HL-60 [1] stood at 46.2 µM. On to `COc1cc2nccc(Oc3ccc(NC(=O)N/N=C/c4cn(-c5cccc(C(F)(F)F)c5)nn4)cc3)c2cc1OC`, for which the IC50 with HL-60 [1] is above 50 µM; with MV4-11 it was 49.1 µM.

Turning to `COc1ccc(/N=C(/Nc2ccc(Oc3ccnc4cc(OC)c(OC)cc34)cc2)C(F)(F)F)cc1`, the IC50 with HL-60 [1] is 36.2 µM.

For `COc1cc2nccc(Oc3ccc(NC(=O)N/N=C/c4cn(-c5ccccc5Cl)nn4)cc3)c2cc1OC`, the half-maximal inhibitory concentration (IC50) in the experiment on HL-60 [1] is above 50 µM; in the experiment with MV4-11, 48.4 µM. In the case of `COc1cc2nccc(Oc3ccc(NC(=O)N/N=C/c4cn(-c5ccccc5)nn4)cc3)c2cc1OC`, the values for the IC50 in the experiment with HL-60 [1] and in the experiment with MV4-11 were 41.3 µM and 38.7 µM, respectively. `COc1cccc(-n2cc(/C=N/NC(=O)Nc3ccc(Oc4ccnc5cc(OC)c(OC)cc45)cc3)nn2)c1`: the IC50 in the experiment on HL-60 [1] was 18.8 µM; in the experiment on MV4-11, 13.8 µM; in experiment [2], above 1 µM. As for `COc1cc2nccc(Oc3ccc(N/C(=N/c4ccc(F)cc4)C(F)(F)F)cc3)c2cc1OC`, the IC50 with HL-60 [1] was 48.9 µM. For the molecule `COc1cc2nccc(Oc3ccc(NC(=O)N/N=C/c4cn(-c5ccccc5F)nn4)cc3)c2cc1OC`, the IC50 is 16.4 µM in the experiment with HL-60 [1], 13.6 µM with MV4-11 and above 1 µM in experiment [2]. As for `COc1cc2nccc(Oc3ccc(NC(=O)N/N=C/c4cn(-c5cccc(Cl)c5)nn4)cc3)c2cc1OC`, the IC50 with HL-60 [1] is 21.1 µM; with MV4-11, 13.4 µM; in experiment [2] it was above 1 µM.

Turning to `COc1cc2nccc(Oc3ccc(NC(=O)N/N=C/c4cn(-c5ccc(F)cc5)nn4)cc3)c2cc1OC`, the IC50 stood at 21.7 µM in the experiment on HL-60 [1] and 21.4 µM with MV4-11. For `COc1cc2nccc(Oc3ccc(NC(=O)N/N=C/c4cn(-c5cccc(C)c5)nn4)cc3)c2cc1OC`, the half-maximal inhibitory concentration (IC50) with HL-60 [1] came out at 25.7 µM; in the experiment with MV4-11, 19.3 µM. In the case of `COc1cc2nccc(Oc3ccc(N/C(=N/c4cccc(Cl)c4)C(F)(F)F)cc3)c2cc1OC`, the IC50 with HL-60 [1] was above 50 µM. In the case of `COc1cc2nccc(Oc3ccc(N/C(=N/c4ccc(Cl)c(C(F)(F)F)c4)C(F)(F)F)cc3)c2cc1OC`, the 50% inhibitory concentration (IC50) with HL-60 [1] was above 50 µM. Take `COc1ccc(-n2cc(/C=N/NC(=O)Nc3ccc(Oc4ccnc5cc(OC)c(OC)cc45)cc3)nn2)cc1`: the IC50 came to 19.3 µM with HL-60 [1] and 16.3 µM in the experiment with MV4-11. On to `COc1cc2nccc(Oc3ccc(N/C(=N/c4ccc(Cl)c(Cl)c4)C(F)(F)F)cc3)c2cc1OC`, for which the IC50 in the experiment on HL-60 [1] was above 50 µM. In experiment [3], `COc1cc2c(Oc3ccc(NC(=O)c4nn(-c5ccccc5)c(=O)cc4C)cc3F)ccnc2cc1OCCCN1CCOCC1` gave an IC50 of 0.00928 µM. For `COc1cc2nccc(Oc3ccc(N/C(=N/c4ccc([N+](=O)[O-])cc4)C(F)(F)F)cc3)c2cc1OC`, the IC50 in the experiment on HL-60 [1] was above 50 µM.

Turning to `COc1cc2nccc(Oc3ccc(NC(=O)N/N=C/c4cn(-c5cccc(F)c5)nn4)cc3)c2cc1OC`, the IC50 in the experiment on HL-60 [1] worked out at 8.91 µM; with MV4-11 it was 5.8 µM; in experiment [2], 0.384 µM. For the same molecule, the “Ratio IC50” value in the experiment with HL-60 [4] is listed as 2.52. For `COc1cc2nccc(Oc3ccc(N/C(=N/c4ccccc4)C(F)(F)F)cc3)c2cc1OC`, the IC50 with HL-60 [1] is 44.6 µM.

Take `COc1cc2nccc(Oc3ccc(NC(=O)N/N=C/c4cn(-c5ccccc5Br)nn4)cc3)c2cc1OC`: the IC50 in the experiment on HL-60 [1] and in the experiment on MV4-11 was above 50 µM throughout. With `COc1cc2nccc(Oc3ccc(N/C(=N/c4cccc(C(F)(F)F)c4)C(F)(F)F)cc3)c2cc1OC`, the IC50 in the experiment with HL-60 [1] is above 50 µM.

By IC50 is commonly meant the midpoint of a concentration-inhibition curve.
